Test results reported in paper PMC4830356 (ACS chemical neuroscience, 2015).

What was measured:
human KOR [1] = target: T1, human KOR (Homo sapiens, UniProt P41145); experiment: βarrestin2 recruitment, high content imaging in U2OS-hKOR-βarr2-GFP cells; type: cell-based
human KOR [2] = target: T1, human KOR; experiment: In-cell western ERK1/2 phosphorylation in CHO-hKOR cells; type: cell-based
human KOR [3] = experiment: Bias analysis by fitting to the operational model; details: relative to U69,593; for ΔΔLogR(G−ERK): G protein coupling vs ERK1/2 phosphorylation; for ΔΔLogR(G−ERK) / ΔΔLogR(G−βarr2): ± SEM; for ΔΔLogR(G−βarr2): G protein coupling vs βarrestin2 recruitment; for bias factor (10^ΔΔLogR) G/ERK: antilog of ΔΔLogR(G−ERK); for bias factor (10^ΔΔLogR) G/βarr2: antilog of ΔΔLogR(G−βarr2)
human KOR [4] = target: T1, human KOR; experiment: [35S]GTPγS coupling; type: biochemical

T1 sequence (P41145 whole entry): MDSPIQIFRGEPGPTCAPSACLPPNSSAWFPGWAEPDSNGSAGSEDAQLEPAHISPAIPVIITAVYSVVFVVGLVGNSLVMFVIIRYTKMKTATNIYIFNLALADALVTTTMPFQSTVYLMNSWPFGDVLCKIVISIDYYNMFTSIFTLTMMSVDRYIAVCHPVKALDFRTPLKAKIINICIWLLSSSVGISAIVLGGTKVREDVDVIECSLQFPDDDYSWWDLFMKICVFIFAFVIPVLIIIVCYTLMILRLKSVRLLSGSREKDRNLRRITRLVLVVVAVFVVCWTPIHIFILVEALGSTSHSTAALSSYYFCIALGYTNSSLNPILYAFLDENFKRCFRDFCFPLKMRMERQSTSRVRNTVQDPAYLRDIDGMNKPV

| Compound | EC50 (human KOR [1]) [nM] | βarrestin2 assay % U69,593 at 10 μM (human KOR [1]) | βarrestin2 assay EMAX, % of max U69,593 (human KOR [1]) | EC50 (human KOR [2]) [nM] | ERK1/2 phosphorylation % U69,593 at 10 μM (human KOR [2]) | ERK1/2 phosphorylation EMAX, % of max U69,593 (human KOR [2]) | ΔΔLogR(G−ERK) (human KOR [3]) | ΔΔLogR(G−βarr2) (human KOR [3]) | bias factor (10^ΔΔLogR) G/ERK (human KOR [3]) | bias factor (10^ΔΔLogR) G/βarr2 (human KOR [3]) | EC50 (human KOR [4]) [nM] | G protein assay EMAX, % of max U69,593 (human KOR [4]) |
| --- | --- | --- | --- | --- | --- | --- | --- | --- | --- | --- | --- | --- |
| FC(F)(F)c1ccc(Cl)c(CSc2nnc(-c3ccccn3)n2Cc2ccco2)c1 [1.1, 2-(5-((2-Chloro-5-(trifluoromethyl)benzyl)thio)-4-(furan-2-yl-methyl)-4H-1,2,4-triazol-3-yl)pyridine] | 8720 ± 2180 | 29 ± 5 % U69,593 | 56 ± 5 % of max U69,593 | 242 ± 46.9 | 114 ± 7 % U69,593 | 120 ± 10 % of max U69,593 | 2.0 ± 0.19 | 1.7 ± 0.19 | 93 | 47 | 31.8 ± 6.4 | 98 ± 1 % of max U69,593 |
| FC(F)(F)c1ccc(Cl)c(CSc2nnc(-c3ccccn3)n2Cc2cccs2)c1 [1.2, 2-(5-((2-Chloro-5-(trifluoromethyl)benzyl)thio)-4-(thiophen-2-ylmethyl)-4H-1,2,4-triazol-3-yl)pyridine] | 6250 ± 1440 | 94 ± 8 % U69,593 | 147 ± 25 % of max U69,593 | 594 ± 115 | 128 ± 6 % U69,593 | 139 ± 9 % of max U69,593 | 2.6 ± 0.19 |  | 419 | 122 | 27.2 ± 3.5 | 98 ± 1 % of max U69,593 |
| Brc1ccc(CSc2nnc(-c3ccccn3)n2Cc2cccs2)cc1 [3.2, 2-(5-((4-Bromobenzyl)thio)-4-(thiophen-2-ylmethyl)-4H-1,2,4-triazol-3-yl)pyridine] | 1940 ± 90.9 | 87 ± 3 % U69,593 | 94 ± 2 % of max U69,593 | 672 ± 113 | 135 ± 8 % U69,593 | 149 ± 13 % of max U69,593 | 1.7 ± 0.22 | 0.9 ± 0.22 | 46 | 7 | 66.6 ± 15.1 | 98 ± 1 % of max U69,593 |
| Ic1ccc(CSc2nnc(-c3ccccn3)n2Cc2ccco2)cc1 [2.1, 2-(5-((4-Iodobenzyl)thio)-4-(furan-2-ylmethyl)-4H-1,2,4-triazol-3-yl)pyridine] | 13500 ± 8290 | 105 ± 2 % U69,593 | 228 ± 96 % of max U69,593 | 222 ± 22.9 | 113 ± 8 % U69,593 | 131 ± 10 % of max U69,593 | 1.9 ± 0.19 | 1.7 ± 0.19 | 88 | 49 | 30.3 ± 4.5 | 95 ± 1 % of max U69,593 |
| Ic1ccc(CSc2nnc(-c3ccccn3)n2Cc2cccs2)cc1 [2.2, 2-(5-((4-Iodobenzyl)thio)-4-(thiophen-2-ylmethyl)-4H-1,2,4-triazol-3-yl)pyridine] | 3570 ± 680 | 94 ± 9 % U69,593 | 123 ± 19 % of max U69,593 | 789 ± 159 | 131 ± 4 % U69,593 | 143 ± 4 % of max U69,593 | 2.5 ± 0.19 | 1.5 ± 0.19 | 304 | 33 | 40.3 ± 8.5 | 100 ± 1 % of max U69,593 |
| Ic1ccc(CSc2nnc(-c3ccccn3)n2Cc2cccnc2)cc1 [2.3, 2-(5-((4-Iodobenzyl)thio)-4-(pyridin-3-ylmethyl)-4H-1,2,4-tri-azol-3-yl)pyridine] |  | 46 ± 3 % U69,593 | 101 ± 7 % of max U69,593 |  | 110 ± 8 % U69,593 | 109 ± 6 % of max U69,593 | 1.2 ± 0.22 | 1.4 ± 0.22 | 16 | 25 |  | 98 ± 3 % of max U69,593 |
| FC(F)(F)c1ccc(Cl)c(CSc2nnc(-c3ccccn3)n2Cc2cccnc2)c1 [1.3, 2-(5-((2-Chloro-5-(trifluoromethyl)benzyl)thio)-4-(pyridin-3-ylmethyl)-4H-1,2,4-triazol-3-yl)pyridine] | 10100 ± 3250 | 38 ± 5 % U69,593 | 65 ± 6 % of max U69,593 | 108 ± 24.5 | 107 ± 7 % U69,593 | 114 ± 8 % of max U69,593 | 1.0 ± 0.19 | 1.2 ± 0.20 | 9 | 15 | 115 ± 8.9 | 97 ± 1 % of max U69,593 |
| Brc1ccc(CSc2nnc(-c3ccccn3)n2Cc2ccco2)cc1 [3.1, 2-(5-((4-Bromobenzyl)thio)-4-(furan-2-ylmethyl)-4H-1,2,4-tri-azol-3-yl)pyridine] | > 31000 | 58 ± 8 % U69,593 |  | 340 ± 25.1 | 114 ± 4 % U69,593 | 125 ± 2 % of max U69,593 | 1.7 ± 0.20 | 1.2 ± 0.20 | 47 | 17 | 84.7 ± 18.4 | 91 ± 3 % of max U69,593 |
| Brc1ccc(CSc2nnc(-c3ccccn3)n2Cc2cccnc2)cc1 [3.3, 2-(5-((4-Bromobenzyl)thio)-4-(pyridin-3-ylmethyl)-4H-1,2,4-triazol-3-yl)pyridine] | > 31000 | 10 ± 7 % U69,593 |  | 227 ± 40.1 | 112 ± 6 % U69,593 | 117 ± 7 % of max U69,593 | 1.1 ± 0.19 | 1.6 ± 0.22 | 14 | 37 | 149 ± 11.5 | 94 ± 4 % of max U69,593 |
